Source: patent US20070026042A1, “System for treating aneurysmal disease” (priority 2005, published 2007)

Key:
[1] = test system: infrarenal abdominal aorta; assay: Elastase-induced abdominal aortic aneurysm model in rats; type: in vivo, Wistar rats; conditions: for relative efficacy in suppressing aneurysmal dilatation compared to Dox at the same dose / inhibition of aortic dilatation induced by elastase perfusion: 15 mg/kg/day; for inhibition of aortic dilatation induced by elastase perfusion: vs saline, Student's t-test
Source text: Male Wistar rats (350-400 g) were subjected to perfusion of an isolated segment of the infrarenal abdominal aorta with 50 units of porcine pancreatic elastase, using the method described by Anidjar. et al. (Anidjar, S, Salzmann, J L, Generic, D, Lagneau, P, Camilleri, J P, and Michel, J B, “Elastase induced experimental aneurysms in rats,” Circulation 82:973-981 (1990); Halpern et al. (Halpern, V J. Liao, Nackman, G B, Gandhi, R H, Irizarry, E, Scholes, J V, Ramey, W G, and Tilson, M D, “The elastase infusion model of experimental aortic aneurysms: Synchrony of induction of endogenous protinases with matrix destruction and inflammatory cell response,” J. Vasc. Surg. […] Surg 23:336-346 (1996)). This method is an accepted model for experimental induction of abdominal aortic aneurysms. The animals (n=6 rats in each group) were then treated with twice-daily subcutaneous injections of either saline vehicle (control), or various doses of doxycycline (Dox) or one of four different, non-antibiotic, chemically-modified tetracyclines (CMTs; CollaGenex, Inc., Newtown, Pa.). Aortic diameter (AD) was measured with microcalipers before and after elastase perfusion, and just prior to sacrifice on day 7. Abdominal aortic aneurysms were defined as an increase in final AD to at least twice that measured before perfusion (≥ 100% increase). Aortic tissues from two animals in each group were perfusion-fixed with 10% neutral buffered formalin, embedded in paraffin, and stained with Verhoeff-van Geisen (WG) for elastin. Tissues from the remaining animals were extracted, normalized to total protein, and analyzed by gelatin substrate zymography as described (Thompson et al. 1995; Halpern et al. 1994; Petrinec 1996).
For saline-treated control animals, mean AD increased by 125.±.18%, and 5 of the 6 (83%) of the animals had abdominal aortic aneurysms as defined.

[2] = Liquid formulations of sirolimus and analogs: drug concentration by liquid chromatography, visual observation; type: physicochemical; conditions: Vitamin E TPGS, water, ethanol less than two percent
Protocol: Certain excipients, such as Vitamin E TPGS and BHT may be utilized to enhance the storage stability of sirolimus compounds through their anti-oxidation properties.
The concentrations of each constituent were determined by liquid chromatography and are presented as weight by volume figures.
In another exemplary embodiment, the liquid formulation of sirolimus comprises water and ethanol as co-solvents and Vitamin E TPGS as the excipient. The liquid formulation was created utilizing the following process. Two hundred milligrams of sirolimus and two grams of ethanol were added to a pre-weighed twenty milliliter scintillation vial. The vial was vortexed and sonicated until the sirolimus was completely dissolved. Approximately six hundred milligrams of Vitamin E TPGS was then added to the solution of ethanol and sirolimus. The vial was vortexed again until a clear yellowish solution was obtained. Nitrogen gas was then used to reduce the amount of ethanol in the vial to approximately two hundred twenty-nine milligrams. In a separate vial, three hundred milligrams of Vitamin E TPGS was dissolved in eleven milliliters of purified water while undergoing vortexing. The Vitamin E TPGS and water solution was then added to the first vial containing the sirolimus, Vitamin E TPGS and ethanol. The first vial was then vortexed vigorously and continuously for three minutes. […]

[3] = test system: human coronary artery smooth muscle cells; assay: Anti-proliferative activity in cultured human coronary artery smooth muscle cells; type: cell-based
Source text: The multiple curves represent various concentrations of mycophenolic acid ranging from zero to one thousand nanomolar concentrations.
FIG. […]
The multiple curves represent various concentrations of cladribine ranging from zero to nine hundred nanomolar concentrations.
(§1) The multiple curves represent various concentrations of topotecan ranging from zero to three hundred nanomolar concentrations.
(§2) The multiple curves represent various concentrations of etoposide ranging from zero to eight hundred nanomolar concentrations.
The multiple curves represent various concentrations of Panzem® ranging from zero to 100 micromolar concentrations.

[4] = test system: human coronary artery smooth muscle cell; assay: MTS cytotoxicity assay; type: cell-based; conditions: 6.6 nanomolar to 30,000.00 nanomolar, FIG. 69
Source text: Typically, a control is utilized to determine baseline toxicity.

[5] = Cell viability assay (cytotoxicity); type: cell-based
Source text: as §1, §2

[6] = test system: tumor cell lines; conditions: Woo et al., J. Med Chem 2002; cited from earlier work
[7] = non-synchronized cells, two percent fetal bovine serum
[8] = synchronized cells, two percent fetal bovine serum

Compound: 4-dedimethylamino-12a-deoxytetracycline [CMT-7]
- relative efficacy in suppressing aneurysmal dilatation compared to Dox at the same dose [1]: 92%
- inhibition of aortic dilatation induced by elastase perfusion [1]: statistically significant

Compound: CO[C@H]1C[C@@H]2CC[C@@H](C)[C@@](O)(O2)C(=O)C(=O)N2CCCC[C@H]2C(=O)O[C@H]([C@H](C)C[C@@H]2CC[C@@H](OC(=O)C(C)(CO)CO)[C@H](OC)C2)CC(=O)[C@H](C)/C=C(\C)[C@@H](O)[C@@H](OC)C(=O)[C@H](C)C[C@H](C)/C=C/C=C/C=C/1C [CCI-779]
- concentration of CCI-779 in the final solution (HPLC) [2]: 15000 µg/mL

Compound: NC(=O)C1=C(O)C[C@@H]2C[C@@H]3Cc4cccc(O)c4C(=O)C3=C(O)[C@]2(O)C1=O [CMT-3, 6-demethyl-6-deoxy 4-dedimethylaminotetracycline]
- relative efficacy in suppressing aneurysmal dilatation compared to Dox at the same dose [1]: 92%
- inhibition of aortic dilatation induced by elastase perfusion [1]: statistically significant

Compound: CC1(O)c2c(Cl)ccc(O)c2C(=O)C2=C(O)C3(O)C(=O)C(C(N)=O)=C(O)CC3CC21 (stereo not drawn) [CMT-4, 4-dedimethylamino-7-chlorotetra-cycline]
- relative efficacy in suppressing aneurysmal dilatation compared to Dox at the same dose [1]: 75%
- inhibition of aortic dilatation induced by elastase perfusion [1]: did not reach statistical significance

Compound: C[C@H]1c2cccc(O)c2C(O)=C2C(=O)[C@]3(O)C(O)=C(C(N)=O)C(=O)C[C@@H]3[C@@H](O)[C@@H]21 [CMT-8, 6-α-deoxy-5-hydroxy-4-dedimethylaminotetracycline]
- relative efficacy in suppressing aneurysmal dilatation compared to Dox at the same dose [1]: 105%
- inhibition of aortic dilatation induced by elastase perfusion [1]: statistically significant

Compound: Nc1nc(Cl)nc2c1ncn2[C@H]1C[C@H](O)[C@@H](CO)O1 [Cladribine, 2-chlorodeoxyadenosine]
- inhibition of human coronary artery smooth muscle cell proliferation ([3]; non-synchronized cells stimulated with two percent fetal bovine serum, FIG. 58): completely inhibits
- effect of addition to rapamycin-treated cells on the anti-proliferative rapamycin dose response curve [3, 7]: leftward and upward shift

Compound: C[C@H]1c2cccc(O)c2C(=O)C2=C(O)[C@]3(O)C(=O)C(C(N)=O)=C(O)[C@@H](N(C)C)[C@@H]3[C@@H](O)[C@@H]21 [Dox, doxycycline]
- aortic dilatation (mean increase in aortic diameter) ([1]; 60 mg/kg/day, twice-daily subcutaneous injections, day 7, saline control 125.±.18%): 61.±.7%
- dose of maximal inhibition of aortic dilatation ([1]; dose-dependent effect, FIG. 76): about 12.5 mg/kg/day

Compound: COc1cc2c(cc1O)CC[C@@H]1[C@@H]2CC[C@]2(C)[C@@H](O)CC[C@@H]12 [Panzem®, 2-methoxyestradiol]
- cell survival in MTS assay [4]: do not reduce human coronary artery smooth muscle cell survival
- effect of addition to rapamycin-treated cells on the anti-proliferative rapamycin dose response curve [3, 8]: increases the percent of inhibition of rapamycin alone
- inhibition of human coronary artery smooth muscle cell proliferation in vitro ([3]; synchronized cells, two percent fetal bovine serum, FIG. 66): extremely effective inhibitor

Compound: COc1cc([C@@H]2c3cc4c(cc3[C@@H](O[C@@H]3O[C@@H]5CO[C@@H](C)O[C@H]5[C@H](O)[C@H]3O)[C@H]3COC(=O)[C@H]23)OCO4)cc(OC)c1O [etoposide]
- cytotoxicity in cell viability assay ([5]; concentrations up to ten micromolar): non-cytotoxic
- effect of addition to rapamycin-treated cells on the anti-proliferative rapamycin dose response curve [3, 7]: leftward and upward shift

Compound: COc1c(C)c2c(c(O)c1C/C=C(\C)CCC(=O)O)C(=O)OC2 [mycophenolic acid]
- effect of addition to rapamycin-treated cells on the anti-proliferative rapamycin dose response curve [3, 7]: leftward and upward shift

Compound: CC[C@@]1(O)C(=O)OCc2c1cc1n(c2=O)Cc2cc3c(CN(C)C)c(O)ccc3nc2-1 [topotecan]
- cytotoxicity in cell viability assay ([5]; concentrations up to one micromolar): non-cytotoxic
- effect of addition to rapamycin-treated cells on the anti-proliferative rapamycin dose response curve [3, 8]: leftward and upward shift

Compound: CC(/C=C/C(=O)NO)=C\[C@@H](C)C(=O)c1ccc(N(C)C)cc1 [trichostatin A]
- IC50 ([3]; in vitro cell culture studies): ~6 nM
- inhibition of human coronary artery smooth muscle cell proliferation ([3]; in vitro cell culture studies, FIG. 51): completely inhibit
- anti-proliferative IC50's [6]: low nM range
